Measurements published in publication PMC9098913, “In vitro reconstitution of Escherichia coli divisome activation” (Nature Communications, 2022).
Read-outs that look alike come from different tables or passages of the source.

Tested on: FtsA/Z co-filaments
Type: biochemical, E. coli
Details: Fig. 2g, mean
Description: By fitting an exponential function to the increase of the PCC with time, we were able to extract the corresponding recruitment rate (Fig. 2f, g).
Subsequently, the chamber was washed 6x with reaction buffer, to remove bulk peptide. To visualize colocalization with either FtsZ or FtsA, either a mix of FtsA and Alexa488-FtsZ or Cy3-FtsA and FtsZ was added. […] The time-lapse videos were recorded for 10 min after the addition, with one frame per 2 s.

Molecule	Recruitment rate of FtsN to FtsZ filaments (Concentration 0.10 µM)	Recruitment rate of FtsN to FtsZ filaments (Concentration 0.20 µM)	Recruitment rate of FtsN to FtsZ filaments (Concentration 0.40 µM)	Recruitment rate of FtsN to FtsZ filaments (Concentration 0.80 µM)
FtsA WT: wild-type E. coli actin-homologue FtsA, membrane anchor of FtsZ	2.60	1.05	0.99	0.85
FtsA R286W (protein, Cy3 or Cy5 at the N-terminus in the labelled form (labelled CLEPTGG peptide conjugated to the 5xGly tag by sortagging); unlabelled protein also used; left off: TwinStrep-SUMO, N-terminal, cleaved | 5x) MIKATDRKLVVGLEIGTAKVAALVGEVLPDGMVNIIGVGSCPSRGMDKGGVNDLESVVKCVQRAIDQAELMADCQISSVYLALSGKHISCQNEIGMVPISEEEVTQEDVENVVHTAKSVRVRDEHRVLHVIPQEYAIDYQEGIKNPVGLSGVRMQAKVHLITCHNDMAKNIVKAVERCGLKVDQLIFAGLASSYSVLTEDERELGVCVVDIGGGTMDIAVYTGGALRHTKVIPYAGNVVTSDIAYAFGTPPSDAEAIKVRHGCALGSIVGKDESVEVPSVGGRPPWSLQRQTLAEVIEPRYTELLNLVNEEILQLQEKLRQQGVKHHLAAGIVLTGGAAQIEGLAACAQRVFHTQVRIGAPLNITGLTDYAQEPYYSTAVGLLHYGKESHLNGEAEVEKRVTASVGSWIKRLNSWLRKEF	2.71	3.32	2.53	2.36
